≈ marks a conversion by molar mass, not a printed value. Like-named read-outs stand apart in the source and are kept apart here.
How the values were obtained:
[1] = system: Staphylococcus aureus subsp. aureus CCM 4223 (ATCC 29213); assay: Antibacterial microdilution broth (EUCAST); assay type: cell-based; settings: Staphylococcus aureus; 24h incubation; read-out: MIC SA
[2] = system: Trichophyton interdigitale CCM 8377 (ATCC 9533); assay: Antifungal microdilution broth (EUCAST); settings: Trichophyton interdigitale
[3] = system: Acinetobacter baumannii DSM 30007 (ATCC 19606); assay: Antibacterial microdilution broth (EUCAST); assay type: cell-based; settings: Acinetobacter baumannii; 24h incubation; read-out: MIC AB
[4] = system: Lichtheimia corymbifera CCM 8077; assay: Antifungal microdilution broth (EUCAST); settings: Lichtheimia corymbifera
[5] = system: M. smegmatis DSM 43465 (ATCC 607); assay: Antimycobacterial MIC, microdilution broth / resazurin; assay type: cell-based; settings: Mycolicibacterium smegmatis; resazurin after 48 h; read-out: MIC M. smegmatis
[6] = system: Enterococcus faecalis CCM 4224 (ATCC 29212); assay: Antibacterial microdilution broth (EUCAST); assay type: cell-based; settings: Enterococcus faecalis; 24h incubation; read-out: MIC EF
[7] = system: Escherichia coli CCM 3954 (ATCC 25922); assay: Antibacterial microdilution broth (EUCAST); assay type: cell-based; settings: Escherichia coli; 24h incubation; read-out: MIC EC
[8] = RP-UHPLC lipophilicity parameter log k’w; assay type: physicochemical; settings: for log k’w: RP-UHPLC, acetonitrile/water, log k extrapolated to 0% acetonitrile; for logkw: experimental lipophilicity parameter
Excerpt: Lipophilicity and water solubility of the drug candidates are important parameters as they are often directly related to their ADME properties in the organism. Lipophilicity is usually expressed as the logarithm of the partition coefficient in n-octanol/water (log P). Due to its laborious determination, especially in the HTS screening, other experimental methods such as RP-HPLC log k’w or purely computational approaches such as Clog P were proposed and have been established as reasonable estimators of true lipophilicity. To investigate the changes in lipophilicity upon introduction of oxazole in the title compounds, we determined the log k’w of all derivatives and compared respective values among the pairs.
The log k of the synthesized compounds was measured using the same instrument (single measurement per concentration), software, and column as was used in the purity evaluation. Working solutions were diluted as described above for purity determination. The log k parameter was calculated after the UHPLC measurements using isocratic mode with mobile phase acetonitrile (B)/water (A) in a set of concentrations of 40, 45, 50% and 20, 30, 40% B for subtype I and subtype II, respectively.

[9] = system: Candida albicans CCM 8320 (ATCC 24433); assay: Antifungal microdilution broth (EUCAST); settings: Candida albicans; for MIC: 24 h
[10] = system: Candida krusei CCM 8271 (ATCC 6258); assay: Antifungal microdilution broth (EUCAST); settings: Pichia kudriavzevii; for MIC: 24 h
[11] = system: Aspergillus fumigatus ATCC 204305; assay: Antifungal microdilution broth (EUCAST); settings: Aspergillus fumigatus
[12] = system: Candida tropicalis CCM 8264 (ATCC 750); assay: Antifungal microdilution broth (EUCAST); settings: Candida tropicalis; for MIC: 24 h
[13] = system: M. kansasii DSM 44162 (ATCC 12478); assay: Antimycobacterial MIC, microdilution broth / resazurin; assay type: cell-based; settings: Mycobacterium kansasii; resazurin after 96 h; read-out: MIC M. kansasii
[14] = system: Staphylococcus epidermidis CCM 4418 (ATCC 12228); assay: Antibacterial microdilution broth (EUCAST); assay type: cell-based; settings: Staphylococcus epidermidis; 24h incubation; read-out: MIC SE
[15] = system: M. aurum DSM 43999 (ATCC 23366); assay: Antimycobacterial MIC, microdilution broth / resazurin; assay type: cell-based; settings: Mycolicibacterium aurum, read-out: MIC M. aurum
[16] = system: Pseudomonas aeruginosa CCM 3955 (ATCC 27853); assay: Antibacterial microdilution broth (EUCAST); assay type: cell-based; settings: Pseudomonas aeruginosa; 72h incubation; read-out: MIC PA
[17] = system: M. avium DSM 44156 (ATCC 25291); assay: Antimycobacterial MIC, microdilution broth / resazurin; assay type: cell-based, Mycobacterium avium; settings: Mycobacterium avium, read-out: MIC M. avium
[18] = system: Candida parapsilosis CCM 8260 (ATCC 22019); assay: Antifungal microdilution broth (EUCAST); settings: Lodderomyces parapsilosis
[19] = system: Staphylococcus aureus subsp. aureus (MRSA) CCM 4750 (ATCC 43300); assay: Antibacterial microdilution broth (EUCAST); assay type: cell-based; settings: Staphylococcus aureus; 24h incubation; read-out: MIC MRSA
[20] = system: Mycobacterium tuberculosis H37Ra ITM-M006710 (ATCC 9431); assay: Antimycobacterial MIC, microdilution broth / Alamar Blue (resazurin); assay type: cell-based; settings: Mycobacterium tuberculosis, 120 h, Middlebrook 7H9, resazurin after 120 h; read-out: Mtb H37Ra MIC
[21] = system: Aspergillus flavus CCM 8363; assay: Antifungal microdilution broth (EUCAST); settings: Aspergillus flavus
[22] = system: HepG2 cells; assay: HepG2 cytotoxicity screening (CellTiter 96); assay type: cell-based, human; settings: Homo sapiens, HepG2, 24 h, 24 h incubation, CellTiter 96; * above highest tested concentration; ** limited by insolubility in medium
[23] = CCM8077, 24 h, read-out: MIC LC
[24] = ATCC204305, 24 h, read-out: MIC AF
[25] = CCM8363, 24 h, read-out: MIC AFla
[26] = ATCC9533|CCM8377, 48 h, read-out: MIC (visual detection)
[27] = CCM8077, 48 h, read-out: MIC (visual detection)
[28] = read-out: MIC (visual detection)
[29] = ATCC204305, 48 h, read-out: MIC (visual detection)
[30] = ATCC22019|CCM8260, 24 h, read-out: MIC (visual detection)
[31] = CCM8363, 48 h, read-out: MIC (visual detection)

SMILES	MIC [1]	MIC ([2]; 72 h, read-out: MIC TI)	MIC [3]	MIC [4, 23]	MIC [5]	MIC [6]	MIC [7]	log k’w [8]	logkw [8]	MIC ([9]; read-out: MIC CA)	MIC ([10]; read-out: MIC CK)	MIC [11, 24]	MIC ([12]; read-out: MIC CT)	MIC [14]	melting point	MIC [16]	MIC ([18]; 24 h, read-out: MIC CP)	MIC [19]	MIC [20]	MIC [21, 25]	further results
O=C(Nc1ncco1)c1cnc(Cl)cn1 [Compound 9b]	> 500 µM	62.5 µM	> 500 µM	500 µM	62.5 µg/mL (≈ 278 µM)	> 500 µM	> 500 µM	0.958	0.958	250 µM	250 µM	500 µM	> 500 µM	> 500 µM	160 to 164 °C	> 500 µM	500 µM	> 500 µM	31.2 µg/mL (≈ 139 µM)	> 500 µM	MIC [13]: < 3.91 µg/mL; MIC ([15]; resazurin after 72 h): 15.6 µg/mL (≈ 69.6 µM); MIC ([17]; 96 h): 31.2 µg/mL (≈ 139 µM)
O=C(Nc1nc(-c2ccccc2)co1)c1ccncc1 [Compound 13b]	500 µM (≈ 133 µg/mL)	500 µM	> 500 µM	> 500 µM	125 µg/mL (≈ 471 µM)	> 500 µM	> 500 µM	1.163	1.163	> 500 µM	> 500 µM	> 500 µM	> 500 µM	125 µM (≈ 33.2 µg/mL)	168 to 171 °C	> 500 µM	> 500 µM	> 500 µM	31.2 µg/mL (≈ 118 µM)	> 500 µM	IC50 [22]: 0.879 mM; MIC ([15]; 72 h): 31.2 µg/mL (≈ 118 µM)
O=C(Nc1nccs1)c1cnccn1 [Compound 8a]	> 500 µM	> 500 µM	> 500 µM	> 500 µM	≥ 500 µg/mL	> 500 µM	> 500 µM	1.222	1.222	> 500 µM	> 500 µM	> 500 µM	> 500 µM	500 µM (≈ 103 µg/mL)		> 500 µM	> 500 µM	> 500 µM	62.5 µg/mL (≈ 303 µM)	> 500 µM	MIC [13]: 31.2 µg/mL (≈ 152 µM); MIC ([15]; resazurin after 72 h): 125 µg/mL (≈ 606 µM); MIC ([17]; resazurin after 96 h): 250 µg/mL (≈ 1210 µM)
O=C(Nc1ncco1)c1ccccn1 [Compound 1b]	125 µM (≈ 23.6 µg/mL)	> 500 µM	> 500 µM	> 500 µM	125 µg/mL (≈ 661 µM)	> 500 µM	> 500 µM	0.854	0.8542	> 500 µM	> 500 µM	> 500 µM	> 500 µM	125 µM (≈ 23.6 µg/mL)	129 to 131 °C	> 500 µM	> 500 µM	250 µM (≈ 47.3 µg/mL)	62.5 µg/mL (≈ 330 µM)	> 500 µM	IC50 [22]: > 1 mM; MIC ([15]; resazurin after 72 h): 31.2 µg/mL (≈ 165 µM)
O=C(Nc1ncco1)c1cnc2ccccc2n1 [Compound 10b]	500 µM (≈ 120 µg/mL)	250 µM	> 500 µM	500 µM	62.5 µg/mL (≈ 260 µM)	> 500 µM	> 500 µM	1.493	1.493	500 µM	250 µM	500 µM	500 µM	500 µM (≈ 120 µg/mL)	163 to 165 °C	> 500 µM	500 µM	> 500 µM	15.6 µg/mL (≈ 65 µM)	> 500 µM	IC50 [22]: > 1 mM; MIC ([15]; 72 h): 15.6 µg/mL (≈ 65 µM)
C[C@@H](c1ncncc1F)[C@](O)(Cn1cncn1)c1ccc(F)cc1F [voriconazole, reference compound]																					IC50 ([2]; ATCC9533|CCM8377, 48 h, read-out: IC50 (spectrophotometric detection)): 1 µg/mL (≈ 2.86 µM); MIC [2, 26]: > 16 µg/mL; IC50 ([4]; CCM8077, 48 h, read-out: IC50 (spectrophotometric detection)): 8 µg/mL (≈ 22.9 µM); MIC [4, 27]: > 16 µg/mL; MIC [9, 28]: > 16 µg/mL; IC50 ([9]; ATCC24433|CCM8320, 24 h, read-out: IC50 (spectrophotometric detection)): 0.03 µg/mL (≈ 0.0859 µM); MIC [10, 28]: > 16 µg/mL; IC50 ([11]; ATCC204305, 48 h, read-out: IC50 (spectrophotometric detection)): 0.25 µg/mL (≈ 0.716 µM); MIC [11, 29]: 1 µg/mL; MIC [12, 28]: > 16 µg/mL; IC50 ([18]; ATCC22019|CCM8260, 24 h, read-out: IC50 (spectrophotometric detection)): 0.03 µg/mL (≈ 0.0859 µM); MIC [18, 30]: > 16 µg/mL; IC50 ([21]; CCM8363, 48 h, read-out: IC50 (spectrophotometric detection)): 1 µg/mL (≈ 2.86 µM); MIC [21, 31]: > 16 µg/mL
O=C(Nc1ncco1)c1ccncc1 [Compound 3b]	250 µM (≈ 47.3 µg/mL)	500 µM	> 500 µM	500 µM	62.5 µg/mL (≈ 330 µM)	> 500 µM	> 500 µM	0.396	0.3955	500 µM	500 µM	> 500 µM	> 500 µM	500 µM (≈ 94.6 µg/mL)	175 to 177 °C	> 500 µM	> 500 µM	500 µM (≈ 94.6 µg/mL)	15.6 µg/mL (≈ 82.6 µM)	> 500 µM	IC50 [22]: > 1 mM; MIC ([15]; 72 h): 15.6 µg/mL (≈ 82.6 µM)
C[C@@H]1[C@H](O)[C@@H](C)/C=C/C=C/C=C/C=C/C=C/C=C/C=C/[C@H](O[C@@H]2O[C@H](C)[C@@H](O)[C@H](N)[C@@H]2O)C[C@@H]2O[C@](O)(C[C@@H](O)C[C@@H](O)[C@H](O)CC[C@@H](O)C[C@@H](O)CC(=O)O[C@H]1C)C[C@H](O)[C@H]2C(=O)O [amphotericin B, reference compound]																					IC90 ([2]; ATCC9533|CCM8377, 48 h, read-out: IC90 (spectrophotometric detection)): 1 µg/mL (≈ 1.08 µM); MIC [2, 26]: 1 µg/mL; IC90 ([4]; CCM8077, 48 h, read-out: IC90 (spectrophotometric detection)): 1 µg/mL (≈ 1.08 µM); MIC [4, 27]: 1 µg/mL; MIC [9, 28]: 1 µg/mL; IC90 ([9]; ATCC24433|CCM8320, 24 h, read-out: IC90 (spectrophotometric detection)): 1 µg/mL (≈ 1.08 µM); MIC [10, 28]: 1 µg/mL; IC90 ([10]; ATCC6258|CCM8271, 24 h, read-out: IC90 (spectrophotometric detection)): 1 µg/mL (≈ 1.08 µM); IC90 ([11]; ATCC204305, 48 h, read-out: IC90 (spectrophotometric detection)): 4 µg/mL (≈ 4.33 µM); MIC [11, 29]: 4 µg/mL; MIC [12, 28]: 1 µg/mL; IC90 ([12]; ATCC750|CCM8264, 24 h, read-out: IC90 (spectrophotometric detection)): 1 µg/mL (≈ 1.08 µM); IC90 ([18]; ATCC22019|CCM8260, 24 h, read-out: IC90 (spectrophotometric detection)): 0.5 µg/mL (≈ 0.541 µM); MIC [18, 30]: 0.5 µg/mL; IC90 ([21]; CCM8363, 48 h, read-out: IC90 (spectrophotometric detection)): 4 µg/mL (≈ 4.33 µM); MIC [21, 31]: 4 µg/mL
